Measurements as given in publication PMC11219871, “Epigenetic-based differentiation therapy for Acute Myeloid Leukemia” (Nature Communications, 2024).
Where “and” joins values, the source holds several entries; their conditions need not be identical. Equal values may be shown once. Read-outs that look alike come from different tables or passages of the source. Blank lines part the entries; values can stand above or below the molecule they belong to.

Tests used:
Format in all cases: cell-based, human
[1] = test system: MV4-11; assay: Differentiation-apoptosis assay, CD11b / annexin-V / Sytox Green / myeloid markers flow cytometry; set-up: Cell viability (%): concentration or dose not given beside the values; CD11b levels: unit not given here; conditions: for CD11b (%) / Cell viability (%): MV4-11, 48 h treatment, replicates 1-3 (Suppl. Fig. 5A)
Protocol: (§1) Next, the cells were washed twice with phosphate-buffered saline (PBS) and resuspended in 1X Binding Buffer at a concentration of 1 × 10^6 cells/mL. An 8-µL aliquot of APC-CD11b (BD Pharmingen, Franklin Lakes, NJ, USA) and 1 µL of FITC annexin-V (AV) (BD Pharmingen, Franklin Lakes, NJ, USA) antibodies were added and incubated for 15 min at room temperature in the dark. Finally, after the addition of 400 µL of 1X Binding Buffer to each tube, samples were collected on a BD FACSCanto flow cytometer (Becton Dickinson, San Jose, CA, USA) and analyzed using FlowJo software.
(§2) For the rest of experiments, the mix of antibodies (2 µL of BV786-CD13, Cat No, 744748 BD; 1 µL of diluted 1:10 antibody of PB-HLADR, Cat No 307633, Biolegend; 5 µL of APCH7-CD14, Cat No 641394, BD) was added to 10 µL of Brilliant Stain Buffer Plus (Becton Dickinson, San Jose, CA, USA). Then, 1 million cells (volume of 250 µL) were added and incubated for 30 min at room temperature in darkness. After 10 min incubation at room temperature with 2 mL of FACSLysing 1X, cells were centrifuged at 540 g for 5 min and washed twice with FACSBuffer. Finally, after centrifugation at 540 g for 5 min cells were resuspended in FACSBuffer.

[2] = test system: MOLM-13; assay: as above; set-up: Cell viability (%): concentration or dose not given beside the values; CD11b levels: unit not given here; conditions: for CD11b (%) / Cell viability (%): MOLM-13, 48 h treatment, replicates 1-3 (Suppl. Fig. 5A)
Protocol: as §1, §2

[3] = test system: HL-60; assay: as above; set-up: Cell viability (%): concentration or dose not given beside the values; CD11b levels: unit not given here; conditions: for CD11b (%) / Cell viability (%): HL-60, 48 h treatment, replicates 1-3 (Suppl. Fig. 5A)
Protocol: Next, the cells were washed twice with phosphate-buffered saline (PBS) and resuspended in 1X Binding Buffer at a concentration of 1 × 10^6 cells/mL. […] Finally, after the addition of 400 µL of 1X Binding Buffer to each tube, samples were collected on a BD FACSCanto flow cytometer (Becton Dickinson, San Jose, CA, USA) and analyzed using FlowJo software.
Then, 1 million cells (volume of 250 µL) were added and incubated for 30 min at room temperature in darkness. After 10 min incubation at room temperature with 2 mL of FACSLysing 1X, cells were centrifuged at 540 g for 5 min and washed twice with FACSBuffer. Finally, after centrifugation at 540 g for 5 min cells were resuspended in FACSBuffer.

[4] = test system: ML-2; assay: as above; set-up: Cell viability: concentration or dose not given beside the values; CD11b levels: unit not given here; conditions: for CD11b / Cell viability: ML-2, 48 h, replicates (Fig 4A)
Protocol: as §1, §2

[5] = test system: ML-2; assay: Cell proliferation assay: GI50
Protocol: (§3) Cell proliferation was analyzed using the CellTiter 96 Aqueous One Solution Cell Proliferation Assay (Promega, Madison, WI). This is a colorimetric method for determining the number of viable cells in proliferation. For the assay, suspension cells were cultured in triplicate at a density of 1 × 10^6 cells/mL in 96-well plates (100.000 cells/well, 100 µL/well), using only the 60 inner wells to avoid any border effects. […] Then, the cells were incubated with 100 μL/well of medium and 20 μL/well of CellTiter 96 Aqueous One Solution reagent for 1–3 h. […] The background absorbance was measured in wells with only cell line medium and solution reagent. First, the average of the absorbance from the control wells was subtracted from all other absorbance values. Data were calculated as the percentage of total absorbance of treated cells/absorbance of non-treated cells. The GI50 values of the different compounds were determined using non-linear regression plots made with GraphPad Prism v5 software.

[6] = test system: MV4-11; assay: Cell proliferation assay: GI50
Protocol: as §3

[7] = test system: MOLM-13; assay: Cell proliferation assay: GI50
Protocol: as §3

[8] = test system: HL-60; assay: Cell proliferation assay: GI50; conditions: read-out: GI50
Protocol: as §3

Structure (SMILES): CCNC(=O)C[C@@H]1N=C(c2ccc(Cl)cc2)c2cc(OC)ccc2-n2c(C)nnc21 [Molibresib, reference compound]
CD11b levels ([1]; MV4-11, daily treatment for 48 h, replicates 1-3 (Suppl. Fig. 9A)): 12.1 and 15.4 and 13.7
CD11b levels ([2]; MOLM-13, daily treatment for 48 h, replicates 1-3 (Suppl. Fig. 9A)): 13.1 and 10.8 and 12.3
CD11b levels ([3]; HL-60 treated daily for 48 h, replicates (Fig 6D)): 14.6 and 15.6 and 12.7
CD11b levels ([4]; ML-2 treated daily for 48 h, replicates (Fig 6E)): 15.1 and 13.2 and 11.7

GI50 ([6]; Homo sapiens, MV4-11, MV4-11): 13 nM
GI50 ([6]; MV4-11, replicates 1-3, nM for Panobistat and Quisinostat): 13.1 nM and 14.3 nM
GI50 ([7]; Homo sapiens, MOLM-13, MOLM-13): 67 nM
GI50 ([7]; Homo sapiens, MOLM-13, MOLM-13, replicates 1-3, nM for Panobistat and Quisinostat): 58.9 nM
GI50 ([7]; MOLM-13, replicates 1-3, nM for Panobistat and Quisinostat): 73.6 nM and 68.5 nM
GI50 ([8]; HL-60, replicates 1-3, nM for Panobistat and Quisinostat): 138 nM and 103 nM
GI50 ([8]; Homo sapiens, HL-60, HL-60, replicates 1-3, nM for Panobistat and Quisinostat): 95.7 nM
GI50 ([8]; Homo sapiens, HL-60, HL-60): 112 nM
Structure (SMILES): Cn1cc(CNCC2CCN(c3ncc(C(=O)NO)cn3)CC2)c2ccccc21 [Quisinostat, reference compound]
CD11b (%) [1]: 16.1% and 10.9% and 10.0%
Cell viability (%) [1]: 83.6% and 79% and 74.7%
CD11b (%) [2]: 55.3% and 50.4% and 58.7%
Cell viability (%) [2]: 64.2% and 57.7% and 56.3%
GI50 ([5]; Homo sapiens, ML-2, ML-2): 76 nM
GI50 ([5]; Homo sapiens, ML-2, ML-2, replicates 1-3, nM for Panobistat and Quisinostat): 67.3 nM
GI50 ([5]; ML-2, replicates 1-3, nM for Panobistat and Quisinostat): 89.5 nM and 71.2 nM
CD11b (%) [3]: 36.8% and 39.6% and 35.4%
Cell viability (%) [3]: 84.1% and 72.6% and 75.5%
CD11b [4]: 35.4% and 25.9% and 25.4%
Cell viability [4]: 86.7% and 75.1% and 77.3%

Structure (SMILES): CCCc1nn(C)c2c(=O)[nH]c(-c3cc(S(=O)(=O)N4CCN(C)CC4)ccc3OCC)nc12 [Sildenafil, reference compound]
Annexin V (%) Replicate 1 ([3]; HL-60, daily 25% GI50, 48 h): 0.22%
Annexin V (%) Replicate 2 ([3]; HL-60, daily 25% GI50, 48 h): 0.14%
Annexin V (%) Replicate 3 ([3]; HL-60, daily 25% GI50, 48 h): 0.18%
CD11b (%) Replicate 1 ([3]; HL-60, daily 25% GI50, 48 h): 0.00%
CD11b (%) Replicate 2 ([3]; HL-60, daily 25% GI50, 48 h): 4.74%
CD11b (%) Replicate 3 ([3]; HL-60, daily 25% GI50, 48 h): 4.47%

GI50 ([6]; MV4-11, 48 h): > 10000 nM
GI50 ([6]; MV4-11, replicates 1-3, µM for the other inhibitors): > 10000 nM
GI50 ([7]; MOLM-13, 48 h): > 10000 nM
GI50 ([7]; MOLM-13, replicates 1-3, µM for the other inhibitors): > 10000 nM
GI50 ([8]; HL-60, 48 h): > 10000 nM
GI50 ([8]; HL-60, replicates 1-3, µM for the other inhibitors): > 10000 nM
Structure (SMILES): CN1CCc2c(c3ccccc3n2Cc2ccc(C(=O)NO)cc2)C1 [Tubastatin, reference compound]
CD11b (%) [1]: 9.3% and 10.2% and 12.6%
Cell viability (%) [1]: 89.7% and 84.3% and 92.1%
CD11b (%) [2]: 29.6% and 36.5% and 39.8%
Cell viability (%) [2]: 74.1% and 65.3% and 78.4%
GI50 ([5]; ML-2, 48 h): > 10000 nM
GI50 ([5]; ML-2, replicates 1-3, µM for the other inhibitors): > 10000 nM
CD11b (%) [3]: 26.8% and 22.6% and 20.1%
Cell viability (%) [3]: 69.4% and 76.8% and 76.1%
CD11b [4]: 28.3% and 27.1% and 25.0%
Cell viability [4]: 83.1% and 89.7% and 79.2%
